Test results: patent publication US20140073651A1, “BENZAMIDE DERIVATIVES AS P2X7 RECEPTOR ANTAGONISTS” (Actelion Pharmaceuticals Ltd., priority 2011, published 2014)

target: T1, human recombinant P2X7 receptor (Homo sapiens, UniProt Q99572); assay: YO-PRO assay (YO-PRO-1 uptake) in HEK cells stably expressing P2X7; type: cell-based; details: HEK-293 cells expressing human recombinant P2X7 receptor; ATP 250 μM, 90 minutes; YO-PRO-1 fluorescence (FLIPR tetra); read-out: IC50 (antagonistic activity with respect to the P2X7 receptor)
T1 construct: expressed in transfected cells
T1 sequence (Q99572 1-595): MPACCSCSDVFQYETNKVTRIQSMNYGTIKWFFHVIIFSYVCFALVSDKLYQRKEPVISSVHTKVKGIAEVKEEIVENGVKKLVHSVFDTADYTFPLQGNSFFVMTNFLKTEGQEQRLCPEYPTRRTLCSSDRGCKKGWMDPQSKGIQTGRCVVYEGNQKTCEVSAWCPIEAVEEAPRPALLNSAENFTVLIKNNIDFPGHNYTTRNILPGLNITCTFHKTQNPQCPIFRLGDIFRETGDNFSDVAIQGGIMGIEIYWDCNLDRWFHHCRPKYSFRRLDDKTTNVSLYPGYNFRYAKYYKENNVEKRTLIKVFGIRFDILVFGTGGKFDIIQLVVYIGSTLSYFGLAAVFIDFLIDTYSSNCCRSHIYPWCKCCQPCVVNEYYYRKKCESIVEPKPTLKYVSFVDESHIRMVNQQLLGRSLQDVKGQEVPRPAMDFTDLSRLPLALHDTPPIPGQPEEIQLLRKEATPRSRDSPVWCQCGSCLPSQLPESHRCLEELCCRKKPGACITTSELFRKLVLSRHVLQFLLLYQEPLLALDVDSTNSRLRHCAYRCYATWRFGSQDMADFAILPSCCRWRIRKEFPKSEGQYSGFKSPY
Outline: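 Antagonist serially diluted (duplicates) on P2X7-expressing HEK cells in buffer with 0.5 μM YO-PRO-1; dye uptake followed on FLIPR Tetra over four time points. IC50 from maximum fluorescence intensity versus compound concentration.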

Structure (SMILES) | IC50
COCCN(c1cncnc1)c1ccc(Cl)c(C(=O)NCC2(O)CCCCC2)c1 [Example 77, 2-Chloro-N-(1-hydroxy-cyclohexylmethyl)-5-[(2-methoxy-ethyl)-pyrimidin-5-yl-amino]-benzamide] | 1460 nM
CN(c1ccc(Cl)c(C(=O)NCC2(O)CCCCC2)c1)c1cnccn1 [Example 79, 2-Chloro-N-(1-hydroxy-cyclohexylmethyl)-5-(methyl-pyrazin-2-yl-amino)-benzamide] | 352 nM
COCCN(c1ccc(Cl)c(C(=O)NCC2(O)CCCCC2)c1)c1cnccn1 [Example 80, 2-Chloro-N-(1-hydroxy-cyclohexylmethyl)-5-[(2-methoxy-ethyl)-pyrazin-2-yl-amino]-benzamide] | 1430 nM
CN(c1ccc(Cl)c(C(=O)NCC2(O)CCCCC2)c1)c1cncc(Cl)n1 [Example 81, 2-Chloro-5-[(6-chloro-pyrazin-2-yl)-methyl-amino]-N-(1-hydroxy-cyclohexylmethyl)-benzamide] | 245 nM
COc1cncc(N(C)c2ccc(Cl)c(C(=O)NCC3(O)CCCCC3)c2)n1 [Example 82, 2-Chloro-N-(1-hydroxy-cyclohexylmethyl)-5-[(6-methoxy-pyrazin-2-yl)-methyl-amino]-benzamide] | 76 nM
CNc1cncc(N(C)c2ccc(Cl)c(C(=O)NCC3(O)CCCCC3)c2)n1 [Example 83, 2-Chloro-N-(1-hydroxy-cyclohexylmethyl)-5-[methyl-(6-methylamino-pyrazin-2-yl)-amino]-benzamide] | 57 nM
CN(C)c1cncc(N(C)c2ccc(Cl)c(C(=O)NCC3(O)CCCCC3)c2)n1 [Example 84, 2-Chloro-5-[(6-dimethylamino-pyrazin-2-yl)-methyl-amino]-N-(1-hydroxy-cyclohexylmethyl)-benzamide] | 65 nM
CN(c1ccc(Cl)c(C(=O)NCC2(O)CCCCC2)c1)c1cncc(=O)[nH]1 [Example 85, 2-Chloro-N-(1-hydroxy-cyclohexylmethyl)-5-[methyl-(6-oxo-1,6-dihydro-pyrazin-2-yl)-amino]-benzamide] | 177 nM
CN(c1ccc(Cl)c(C(=O)NCC2(O)CCCCC2)c1)c1nccnc1Cl [Example 86, 2-Chloro-5-[(3-chloro-pyrazin-2-yl)-methyl-amino]-N-(1-hydroxy-cyclohexylmethyl)-benzamide] | 61 nM
CN(c1ccc(Cl)c(C(=O)NCC2(O)CCCCC2)c1)c1cnc(Cl)cn1 [Example 87, 2-Chloro-5-[(5-chloro-pyrazin-2-yl)-methyl-amino]-N-(1-hydroxy-cyclohexylmethyl)-benzamide] | 190 nM
COc1cnc(N(C)c2ccc(Cl)c(C(=O)NCC3(O)CCCCC3)c2)cn1 [Example 88, 2-Chloro-N-(1-hydroxy-cyclohexylmethyl)-5-[(5-methoxy-pyrazin-2-yl)-methyl-amino]-benzamide] | 302 nM
CN(c1ccc(Cl)c(C(=O)NCC2(O)CCCCC2)c1)c1ccc(Cl)nn1 [Example 89, 2-Chloro-5-[(6-chloro-pyridazin-3-yl)-methyl-amino]-N-(1-hydroxy-cyclohexylmethyl)-benzamide] | 271 nM
COc1ccc(N(C)c2ccc(Cl)c(C(=O)NCC3(O)CCCCC3)c2)nn1 [Example 91, 2-Chloro-N-(1-hydroxy-cyclohexylmethyl)-5-[(6-methoxy-pyridazin-3-yl)-methyl-amino]-benzamide] | 354 nM
CN(c1ccc(Cl)c(C(=O)NCC2(O)CCCCC2)c1)c1ccccn1 [Example 93, 2-Chloro-N-(1-hydroxy-cyclohexylmethyl)-5-(methyl-pyridin-2-yl-amino)-benzamide] | 111 nM
CN(c1ccc(Cl)c(C(=O)NCC2(O)CCCCC2)c1)c1ccnn1C [Example 101, 2-Chloro-N-(1-hydroxy-cyclohexylmethyl)-5-[methyl-(2-methyl-2H-pyrazol-3-yl)-amino]-benzamide] | 319 nM
O=C(NCC1(O)CCCCC1)c1cc(Oc2cc(F)ccn2)ccc1Cl [Example 103, 2-Chloro-5-(4-fluoro-pyridin-2-yloxy)-N-(1-hydroxy-cyclohexylmethyl)-benzamide] | 46 nM
O=C(NCC1(O)CCCCC1)c1cc(Oc2ccnc(Cl)c2)ccc1Cl [Example 104, 2-Chloro-5-(2-chloro-pyridin-4-yloxy)-N-(1-hydroxy-cyclohexylmethyl)-benzamide] | 100 nM
O=C(NCC1(O)CCCCC1)c1cc(Oc2ccccn2)ccc1Cl [Example 105, 2-Chloro-N-(1-hydroxy-cyclohexylmethyl)-5-(pyridin-2-yloxy)-benzamide] | 47 nM
O=C(NCC1(O)CCCCC1)c1cc(Oc2ccncc2)ccc1Cl [Example 106, 2-Chloro-N-(1-hydroxy-cyclohexylmethyl)-5-(pyridin-4-yloxy)-benzamide] | 1720 nM
O=C(NCC1(O)CCCCC1)c1cc(Oc2cccnc2)ccc1Cl [Example 107, 2-Chloro-N-(1-hydroxy-cyclohexylmethyl)-5-(pyridin-3-yloxy)-benzamide] | 70 nM

Results, then the compound that gave them:

IC50 | Structure (SMILES)
439 nM | O=C(NCC1(O)CCCCC1)c1cc(Nc2cnccn2)ccc1Cl [Example 78, 2-Chloro-N-(1-hydroxy-cyclohexylmethyl)-5-(pyrazin-2-ylamino)-benzamide]
905 nM | CN(c1ccc(Cl)c(C(=O)NCC2(O)CCCCC2)c1)c1ccc(=O)[nH]n1 [Example 90, 2-Chloro-N-(1-hydroxy-cyclohexylmethyl)-5-[methyl-(6-oxo-1,6-dihydro-pyridazin-3-yl)-amino]-benzamide]
82 nM | O=C(NCC1(O)CCCCC1)c1cc(Nc2ccccn2)ccc1Cl [Example 92, 2-Chloro-N-(1-hydroxy-cyclohexylmethyl)-5-(pyridin-2-ylamino)-benzamide]
160 nM | O=C(NCC1(O)CCCCC1)c1cc(Nc2cccc(=O)[nH]2)ccc1Cl [Example 94, 2-Chloro-N-(1-hydroxy-cyclohexylmethyl)-5-(6-oxo-1,6-dihydro-pyridin-2-ylamino)-benzamide]
351 nM | CN(c1ccc(Cl)c(C(=O)NCC2(O)CCCCC2)c1)c1cccc(=O)[nH]1 [Example 95, 2-Chloro-N-(1-hydroxy-cyclohexylmethyl)-5-[methyl-(6-oxo-1,6-dihydro-pyridin-2-yl)-amino]-benzamide]
123 nM | Cn1c(Nc2ccc(Cl)c(C(=O)NCC3(O)CCCCC3)c2)cccc1=O [Example 96, 2-Chloro-N-(1-hydroxy-cyclohexylmethyl)-5-(1-methyl-6-oxo-1,6-dihydro-pyridin-2-ylamino)-benzamide]
317 nM | COCCn1c(Nc2ccc(Cl)c(C(=O)NCC3(O)CCCCC3)c2)cccc1=O [Example 97, 2-Chloro-N-(1-hydroxy-cyclohexylmethyl)-5-[1-(2-methoxy-ethyl)-6-oxo-1,6-dihydro-pyridin-2-ylamino]-benzamide]
332 nM | COCCn1c(N(C)c2ccc(Cl)c(C(=O)NCC3(O)CCCCC3)c2)cccc1=O [Example 98, 2-Chloro-N-(1-hydroxy-cyclohexylmethyl)-5-{[1-(2-methoxy-ethyl)-6-oxo-1,6-dihydro-pyridin-2-yl]-methyl-amino}-benzamide]
148 nM | Cn1cccc(Nc2ccc(Cl)c(C(=O)NCC3(O)CCCCC3)c2)c1=O [Example 99, 2-Chloro-N-(1-hydroxy-cyclohexylmethyl)-5-(1-methyl-2-oxo-1,2-dihydro-pyridin-3-ylamino)-benzamide]
217 nM | Cn1nccc1Nc1ccc(Cl)c(C(=O)NCC2(O)CCCCC2)c1 [Example 100, 2-Chloro-N-(1-hydroxy-cyclohexylmethyl)-5-(2-methyl-2H-pyrazol-3-ylamino)-benzamide]
37 nM | O=C(NCC1(O)CCCCC1)c1cc(Oc2cccc(F)n2)ccc1Cl [Example 102, 2-Chloro-5-(6-fluoro-pyridin-2-yloxy)-N-(1-hydroxy-cyclohexylmethyl)-benzamide]
64 nM | O=C(NCC1(O)CCCCC1)c1cc(Oc2cccc(Cl)n2)ccc1Cl [Example 108, 2-Chloro-5-(6-chloro-pyridin-2-yloxy)-N-(1-hydroxy-cyclohexylmethyl)-benzamide]
53 nM | CNc1cccc(Oc2ccc(Cl)c(C(=O)NCC3(O)CCCCC3)c2)n1 [Example 109, 2-Chloro-N-(1-hydroxy-cyclohexylmethyl)-5-(6-methylamino-pyridin-2-yloxy)-benzamide]
122 nM | CN(C)c1cccc(Oc2ccc(Cl)c(C(=O)NCC3(O)CCCCC3)c2)n1 [Example 110, 2-Chloro-5-(6-dimethylamino-pyridin-2-yloxy)-N-(1-hydroxy-cyclohexylmethyl)-benzamide]
21 nM | COc1cccc(Oc2ccc(Cl)c(C(=O)NCC3(O)CCCCC3)c2)n1 [Example 111, 2-Chloro-N-(1-hydroxy-cyclohexylmethyl)-5-(6-methoxy-pyridin-2-yloxy)-benzamide]
43 nM | O=C(NCC1(O)CCCCC1)c1cc(Oc2cccc(=O)[nH]2)ccc1Cl [Example 112, 2-Chloro-N-(1-hydroxy-cyclohexylmethyl)-5-(6-oxo-1,6-dihydro-pyridin-2-yloxy)-benzamide]
